Experimental data published in patent US7429612B2, “Indoline compound and medicinal use thereof” (Kyoto Pharmaceutical Industries, Ltd., priority 2002, dated 2008).
Blank lines part the entries; values can stand above or below the molecule they belong to.

Columns and labels:
[1] = Plasma concentration after oral administration; type: in vivo, SD male rats; settings: 10 mg/kg oral, suspended in 5% gum arabic, HPLC
Method: A test compound (10 mg/kg) suspended in 5% gum arabic solution was forcibly administered orally to SD male rats weighing 200-250 g. At 0.5, 1, 3, 5 and 8 hours after administration, blood was taken without anesthesia and heparinized plasma was separated by conventional method. The concentration of the test compound in the plasma was determined by high performance liquid chromatography, the results of which are shown in Table 5.

hepatic ACAT = assay: Hepatic ACAT inhibitory activity (rabbit liver microsomes, [1-14C]-oleoyl CoA); type: biochemical, Japanese white rabbits; settings: Concentration: 10^-6 M; inhibition of cholesteryl oleate production vs control
Method: A high cholesterol feed [a feed added with cholesterol (1%), Clea Japan, Inc.] was fed to male Japanese white rabbits weighing 2-2.5 kg at 100 g per day and the rabbits were bred for 4 weeks. The rabbits were killed by bleeding under anesthesia and liver was removed. The liver was homogenated, and the homogenate was centrifuged at 4° C. and 10,000 rpm for 15 min. The obtained supernatant was further centrifuged at 4° C. and 41,000 rpm for 60 minutes to give microsomal fractions. The microsomal suspension as an enzyme sample, dimethyl sulfoxide (DMSO, […]) or a test compound dissolved in DMSO (test compound solution 3 μl), and reaction substrate [1-^14C]-oleoyl CoA were added to 0.15 M phosphate buffer to the total amount of 300 μl. After incubation at 37° C. for 20 minutes, a chloroform-methanol mixture was added to stop the reaction. Water was added thereto and mixed, and the chloroform layer was separated. The solvent was evaporated to dryness, and the residue was redissolved in n-hexane. The mixture was subjected to thin layer chromatography using a silica gel plate. The spots of cholesteryl oleate on the silica gel plate were scraped, and quantitatively assayed on lo a liquid scintillation counter.

[2] = tested on: cholesterol secretion from the liver; assay: Mouse hepatic lipid secretion inhibitory effect (Triton WR-1339 method); type: in vivo, Slc:ICR mice; settings: 10 mg/kg/day oral, plasma TC change in 3 hr after Triton WR-1339, read-out: Cholesterol secretion inhibitory rate (%)
Method: About 5 week-old male Slc:ICR mice (Japan SLC) were fed only in the daytime (9:00-18:00) and preliminarily bred for one week. During this period, free access to tap water was allowed during the nighttime, too. The mice were divided into a control group and a test compound group at 6 mice per group, such that the average and standard deviation of the body weight became almost the same. The blood (ca 80 μL) was drawn from the orbital venous plexus using a glass capillary under anesthesia, and at 30 min after blood drawing, a test compound suspended in 5% gum arabic solution in advance was orally administered at a dose of 10 mg/kg. At 30 min after the administration, Triton WR-1339 60 mg/mL solution prepared with physiological saline in advance was administered to the tail vein at a dose of 5 mL/kg. At 3 hr after the Triton WR-1339 administration, the blood was drawn again from the orbital venous plexus. Plasma was separated from the drawn blood, and plasma TC was measured using a commercially available measurement kit (Wako Pure Chemical Industries, Ltd.). Changes in blood-concentration in 3 hr after Triton WR-1339 administration were calculated and taken as the rate of cholesterol secretion from the liver. The rate of secretion was compared between the control group and the test compound group and the secretion inhibitory rate of the test compound was calculated.

[3] = tested on: THP-1 cell-derived macrophages; assay: THP-1 cell-derived macrophage foam cell formation suppressing effect (cholesterol ester accumulation inhibitory effect); type: cell-based; settings: Homo sapiens, THP-1, 72 h, Concentration: 10^-6 M, acetyl LDL, 3 days culture, read-out: foam cell formation inhibitory rate (%)
Method: THP-1 (Dainippon Pharmaceutical Co., Ltd.) cells were passage cultured in RPMI-1640 medium supplemented with 10% fetal bovine serum (FBS), and the cells of passages 6-13 after purchase were used. The cells were suspended in FBS-containing RPMI-1640 medium to give a suspension having a concentration of 4×10^5 cells/mL. The cell suspension was inoculated to a 12 well microplate by 1 mL, and treated with phorbol 12-myristate 13-acetate (PMA, 200 nM) as a differentiation inducing agent into macrophage. Then acetyl LDL 400 μg/mL prepared separately from plasma-derived LDL of genetically hyperlipidemia rabbit (KHC rabbit, Japan Laboratory Animals, Inc.) was added. In addition, a test compound dissolved in DMSO and diluted with FBS-containing RPMI-1640 medium or a control solvent was added. After culture in a carbon dioxide incubator for 3 days, the cells were washed with phosphate buffered physiological saline (pH 7.0), and the lipid was extracted with n-hexane/isopropanol (3:2). The cells were dissolved in 1M-NaOH and the protein amount was measured. The free cholesterol and cholesterol ester in a lipid extraction sample was measured by the method of Kunitomo et al. (1983). The cholesterol ester was compared between the control cell and the test compound-treated cells, and the cholesterol ester accumulation inhibitory rate of the test compound was calculated.

LDL = assay: In vitro LDL peroxidation inhibitory effect (copper sulfate, thiobarbituric acid method); type: biochemical, KHC rabbits; settings: Concentration: 10^-5 M; malondialdehyde production, 5 μM copper sulfate, 37° C., 1 hr
Method: The blood was drawn from the auricular artery of KHC rabbits weighing about 3 kg and LDL was separated by a conventional method. A solution (5 μL) of test compound in DMSO or DMSO was added (final concentration 10^−5 M) to LDL suspension (0.5 mg protein/mL, 0.5 mL), aqueous copper sulfate solution (5 μL, final concentration 5 μM) was added, and the mixture was incubated at 37° C. for 1 hr. After the completion of the incubation, EDTA·2Na solution (5 μL, final concentration 1 mM) was added, and lipoperoxide concentration in the-sample was measured by the Yagi's method. To be specific, lipoperoxide in the sample was color developed by the thiobarbituric acid method, measured as malondialdehyde and the activity of the test compound was shown by malondialdehyde production inhibitory rate (%) [to what level the production of malondialdehyde was inhibited as compared to control].

SMILES: CCCCCN1CCc2c(C)c(NS(C)(=O)=O)c(C)c(NC(=O)C(C)(C)C)c21 [Example 11, N-(5-methanesulfonylamino-4,6-dimethyl-1-pentylindolin-7-yl)-2,2-dimethylpropanamide]
Maximum concentration in blood [1]: 1.98 µg/mL

SMILES: CCCCN1CCc2c(C)c(NS(C)(=O)=O)c(C)c(NC(=O)C(C)(C)C)c21 [Example 12, N-(1-butyl-5-methanesulfonylamino-4,6-dimethylindolin-7-yl)-2,2-dimethylpropanamide]
Maximum concentration in blood [1]: 3.05 µg/mL

SMILES: Cc1c2c(c(NC(=O)C(C)(C)C)c(C)c1NS(C)(=O)=O)N(CCC(C)C)CC2 [Example 13, N-[5-methanesulfonylamino-4,6-dimethyl-1-(3-methylbutyl)indolin-7-yl]-2,2-dimethylpropanamide]
Maximum concentration in blood [1]: 1.36 µg/mL

SMILES: CCCN1CCc2c(C)c(NS(C)(=O)=O)c(C)c(NC(=O)C(C)(C)C)c21 [Example 14, N-(5-methanesulfonylamino-4,6-dimethyl-1-propylindolin-7-yl)-2,2-dimethylpropanamide]
Maximum concentration in blood [1]: 2.30 µg/mL

SMILES: CCCN1CCc2c(C)c(NS(N)(=O)=O)c(C)c(NC(=O)C(C)(C)C)c21.Cl [Example 17, N-(4,6-dimethyl-1-propyl-5-sulfamoylaminoindolin-7-yl)-2,2-dimethylpropanamide hydrochloride]
Hepatic ACAT inhibitory ratio (%) (hepatic ACAT): 86.4%
inhibition in vivo at 10 mg/kg [2]: 44.4%

SMILES: CCCCCN1CCc2c(C)c(NS(N)(=O)=O)c(C)c(NC(=O)C(C)(C)C)c21.Cl [Example 18, N-(4,6-dimethyl-1-pentyl-5-sulfamoylaminoindolin-7-yl)-2,2-dimethylpropanamide hydrochloride]
Hepatic ACAT inhibitory ratio (%) (hepatic ACAT): 96.7%
inhibition at 1 µM [3]: 93%
inhibition in vivo at 10 mg/kg [2]: 41.4%

SMILES: CC(C)(Sc1cc(C(C)(C)C)c(O)c(C(C)(C)C)c1)Sc1cc(C(C)(C)C)c(O)c(C(C)(C)C)c1 [Probucol]
LDL peroxidation inhibitory ratio (%) (LDL): 33.8%

Second part, led by results:

Maximum concentration in blood [1]: 1.68 µg/mL
SMILES: Cc1c2c(c(NC(=O)C(C)(C)C)c(C)c1NS(C)(=O)=O)N(CC(C)C)CC2 [Example 15, N-[5-methanesulfonylamino-4,6-dimethyl-1-(2-methylpropyl)indolin-7-yl]-2,2-dimethylpropanamide]

Maximum concentration in blood [1]: 2.90 µg/mL
SMILES: CCN1CCc2c(C)c(NS(C)(=O)=O)c(C)c(NC(=O)C(C)(C)C)c21 [Example 16, N-(1-ethyl-5-methanesulfonylamino-4,6-dimethylindolin-7-yl)-2,2-dimethylpropanamide]

Maximum concentration in blood [1]: 1.12 µg/mL
SMILES: CCCCCCN1CCc2c(C)c(NS(C)(=O)=O)c(C)c(NC(=O)C(C)(C)C)c21 [Example 22, N-(1-hexyl-5-methanesulfonylamino-4,6-dimethylindolin-7-yl)-2,2-dimethylpropanamide]

Maximum concentration in blood [1]: 2.03 µg/mL
SMILES: Cc1c2c(c(NC(=O)C(C)(C)C)c(C)c1NS(C)(=O)=O)N(C1CCCC1)CC2 [Example 41, N-(1-cyclopentyl-5-methanesulfonylamino-4,6-dimethylindolin-7-yl)-2,2-dimethylpropanamide]
Hepatic ACAT inhibitory ratio (%) (hepatic ACAT): 97.3%
inhibition at 1 µM [3]: 76.5%
inhibition in vivo at 10 mg/kg [2]: 58.5%

Maximum concentration in blood [1]: 1.31 µg/mL
SMILES: CCCN1c2c(c(C)c(NS(N)(=O)=O)c(C)c2NC(=O)C(C)(C)C)CC1C.Cl (stereo not shown) [Example 53, N-(2,4,6-trimethyl-1-propyl-5-sulfamoylaminoindolin-7-yl)-2,2-dimethylpropanamide hydrochloride]
inhibition at 1 µM [3]: 70%
